{"source": "patent US8334298B2", "about": "“Treatment or prevention of ovarian hyperstimulation syndrome (OHSS) using a dopamine agonist” (Ferring International Center S.A., priority 2005, dated 2012)", "test_system": "OHSS rats", "assay": "Dose response of quinagolide on vascular permeability in OHSS rats (Example 4)", "type": "in vivo, Wistar rats", "conditions": "cabergoline 150 ug/kg oral (positive control); single rat; 48-56 h after hCG; listed as Cb", "description": "Inducing OHSS manifestations. A total of 96 female immature Wistar rats (Harlan Iberica, Sant Feliu de Codina, Barcelona, SPAIN), weighing from 42-48 grams at the beginning of these experiments (day 22), were used to carry out the studies disclosed in Examples 4 and 5. They were injected subcutaneously (s.c) with 10 IU of Pregnant Mare's Serum Gonadotropin (PMSG) (Sigma) for 4 consecutive days (days 22-25), followed by administered intraperitoneally (i.p.) with 30 IU of hCG on the fifth day (day 26) in order to induce OHSS clinical manifestations.\nMeasuring vascular permeability (VP). VP was used as an index to estimate and compare the degree of development of the illness. VP was measured in all animals 48-56 hours after hCG administration, following methodology previously described (Gomez et al., supra). Briefly, 0.2 ml Evans Blue dye, 0.05 M, was injected through the femoral vein. After 30 minutes, the peritoneal cavity was irrigated with 5 ml saline, pH 6, 22° C., and massaged for 30 seconds to recover extravasated dye. The peritoneal fluid was recovered in 13 ml tubes containing 0.1 ml NaOH. The tubes were centrifuged at 900×g for 12 minutes to avoid protein interference. The supernatant was filtered through 0.22 um filters in order to eliminate ascitic protein/fibrin mucus which could interfere in the posterior measurements. Finally the absorbance of the extravasated dye was measured at 595 nm using a spectrophotometer. Average and average deviations in each group (see below) were calculated. VP was expressed as μg extravasated Evans Blue dye/100 g body weight in each animal.\nA total of 70 rats were used for this study. All 70 rats were administered PMSG/hCG to induce OHSS symptoms, as described above. Quinagolide (batch no. 1010003004; supplied by Ferring Labs) was administered to 56 rats. The 56 rats that received quinagolide were used as a dose response test group. […] Cabergoline (Dostinex®) was administered to 6 rats as a positive control. The specific details of the dosing regimen for each group is as follows:\nVehicle control group (quinagolide 0 μg/kg) (n=8). Eight rats were implanted with prolactin placebo pellets, 5 days release, between 10:00 to 11:00 on day 26, just following hCG injection (see General Procedures, above). Six hours after pellet implantation, the rats in this group were orally administered vehicle solution (1:6 alcohol in water mixture) (without quinagolide). They received another oral vehicle administration of vehicle solution 24 hours later. Experimental groups (quinagolide at 0.1, 0.3, 1, 3, 10, 25, 50 μg/kg/day to 7 test groups of rats) (n=8 in each test group). The rats in these groups were implanted with prolactin pellets, 5 days release, between 10:00 to 11:00 on day 26, just following hCG injection (see General Procedures, above). […] In this manner, the desired 0.1, 0.3, 1, 3, 10, 25, 50 μg/kg doses to be assayed were achieved. Twenty four hours later, the rats in this group were administered with another dose of the same amounts of quinagolide. Positive (cabergoline) control group (n=6). These six rats were implanted with prolactin pellets, 5 days release, between 10:00 to 11:00 .m on day 26, just following hCG injection. […] Twenty four hours later, the rats in this group were administered with another dose of the same amount of cabergoline. […] Reconstitution and dilution process to reach appropriate quinagolide doses for oral administration. Appropriate doses were prepared fresh just prior to being administered (on day 26). A single quinagolide vial, containing approximately 2.30-2.30 mg quinagolide, was employed for each single set of animals. For each solution, approximately 2.30-2.30 mg quinagolide was diluted in a vehicle solution (1:6 alcohol:water mixture) to achieve a stock concentration of 100 μg quinagolide per ml solution. […]", "note": "“And” between values parts separate entries of the source, which are not always exact repeats. Equal values may be shown once."}
{"smiles": "C=CCN1C[C@H](C(=O)N(CCCN(C)C)C(=O)NCC)C[C@@H]2c3cccc4[nH]cc(c34)C[C@H]21", "note": "[Cabergoline, cabergoline]", "values": [{"measurement": "Absorbance at 595 nm", "result": "0.356 and 0.034 and 0.1 (2×) and 0.293"}, {"measurement": "μg EB per 100 g body weight", "result": "21.56 μg EB per 100 g body weight and 2.118 μg EB per 100 g body weight and 6.507 μg EB per 100 g body weight and 6.229 μg EB per 100 g body weight and 17.99 μg EB per 100 g body weight"}, {"measurement": "μg Evans Blue (Abs * 4360)", "result": "1552.16 μg and 148.24 μg and 436 μg (2×) and 1277.48 μg"}]}
